Test results: publication PMC3968004, “The Relevance of Testing the Efficacy of Anti-Angiogenesis Treatments on Cells Derived from Primary Tumors: A New Method for the Personalized Treatment of Renal Cell Carcinoma” (PLoS ONE, 2014)

Assays:
[1] = tested on: ERK, AKT and S6K activity in M cells; test: Immunoblotting of signaling pathways in M cells; assay type: cell-based, human
Description: The following antibodies were used for Western blotting: anti-phospho ERK 1,2 (Sigma St Louis, MO, Reference M8159)), anti-phospho Akt, anti-Akt and anti-phospho S6 Kinase (Cell Signaling, Cambridge, UK, respectively References 4051, 9272, 9234) and anti-TFE3 anti ERKs (Santa Cruz Biotechnology, Santa Cruz, CA references sc 5958 (TFE3) and sc 93 (ERK)).
The effects of the different drugs on proliferation are correlated with the activity of intracellular signaling pathways (ERK and PI3 kinase/AKT/mTOR/S6 kinase (S6K)) in TF cells. […] The effects of the different drugs on signaling pathways have been tested in CC and M cells. […] Everolimus inhibited S6K with reactivation of AKT.
Supplementary file pone.0089449.s001.tif: Figure S1 In vitro sensitivity of the CC and M cells to the different drugs used to treat the patients; specific impact on downstream signaling pathways. A) The activity of major signaling pathways (ERK, PI3K/AKT/mTOR/S6K) in response to the different treatments (sunitinib (Su), sorafenib (So) and everolimus (Ev)) was determined by analysis of the presence of the phosphorylated forms of the kinases (pERK, pAKT, pS6K) in TF cells following a short-term treatment (two hours) by immunoblotting. Tubulin is shown as a loading control. […]

[2] = tested on: subcutaneous xenografts of TFE3 RCC cells; test: Tumor xenografts of TF cells in nude mice; assay type: in vivo, nude (nu/nu) female mice; conditions: TF cell xenografts; for percentage of mice with decrease (D) of the tumor size / percentage of mice with progression (P) of the tumor size / percentage of mice with stabilization (S) of the tumor size: daily gavage for fifteen days, sunitinib 40 mg/kg or sorafenib 80 mg/kg; for percentage of mice with stabilization (S) of the tumor size: stable = change not exceeding 1.5-fold; for percentage of tumor that does not progress: stable plus decreased tumors
Procedure: This study was carried out in strict accordance with the recommendations in the Guide for the Care and Use of Laboratory Animals of Centre National de la Recherche Scientifique (CNRS). All efforts were made to minimize suffering. Our experiments were approved by the “Comité national institutionnel d'éthique pour l'animal de laboratoire (CIEPAL)”. The project is registered under the reference: NCE/2013-97. The mice were housed under strict pathogen-free conditions and given sterile food and water. Animals were housed 5 per cage. 10^7 cells were injected subcutaneously into the flank of 5-week-old nude (nu/nu) female mice (Janvier, France) under sodium pentobarbital anesthesia. The tumor volume was determined by using a caliper (v = L×l^2×0.52 [18]). When the tumor reached 100 mm3, mice were treated by daily gavage for fifteen days with placebo (dextrose-water vehicle), sunitinib (40 mg/kg) or sorafenib (80 mg/kg). The ratio between the size of the tumor before and at the end of treatment for each tumor was measured.
The capacity of the drugs to reduce or stabilize tumor growth was tested on subcutaneous xenografts of TFE3 RCC cells in nude mice. The tumor growth was rather long (three months), a result compatible with previous results obtained on direct grafting of tumor fragments of RCC in mice. […] Without any treatment tumors progressed (40%) or remained stable (40%) (Fig. 5A). […] In the presence of sorafenib, the growth of most of the tumors was stable (45%). […] Another striking observation was the presence of a majority of cells with clear cytoplasm on HES staining for stable tumors or tumors that regressed during treatment (Fig. 5B). This cytological feature was the same in the initial tumor.
Figure 5 In vivo sensitivity of the TF cells to the different drugs used to treat the patient. A) 10^7 cells were subcutaneously injected into nude mice. When the tumor was visible mice were treated with sunitinib or sorafenib for 15 days. Tumor size was evaluated with a caliper. The percentage of mice with progression (P), decrease (D) or stabilization (S) of the tumor size is indicated. B) The general histological aspect of a progressing tumor (P) or a regressing (D) tumor is shown for the different situations (Control, sunitinib, sorafenib). The percentage of clear zones in stable or responsive tumors was evaluated using the Leica software SlidePath Gateway. Statistical analysis was performed using a student's t test (* p<0.05). TEXT PRINTED IN THE PICTURE: (A) Sunitinib: P: 33 %; S: 17 %; D: 50 % | (A) Sorafenib: P: 22 %; S: 45 %; D: 33 %

Row | Compound | S6K activity [1] | number of clear zones in tumors (HES staining) ([2]; compared with control) | percentage of mice with decrease (D) of the tumor size [2] [%] | percentage of mice with progression (P) of the tumor size [2] [%] | percentage of mice with stabilization (S) of the tumor size [2] [%] | percentage of tumor that does not progress [2] [%]
1 | CO[C@H]1C[C@@H]2CC[C@@H](C)[C@@](O)(O2)C(=O)C(=O)N2CCCC[C@H]2C(=O)O[C@H]([C@H](C)C[C@@H]2CC[C@@H](OCCO)[C@H](OC)C2)CC(=O)[C@H](C)/C=C(\C)[C@@H](O)[C@@H](OC)C(=O)[C@H](C)C[C@H](C)/C=C/C=C/C=C/1C [everolimus] | strong inhibition | – | – | – | – | –
2 | CNC(=O)c1cc(Oc2ccc(NC(=O)Nc3ccc(Cl)c(C(F)(F)F)c3)cc2)ccn1 [sorafenib] | – | significant increase | 33 | 22 | 45 | 78
3 | CCN(CC)CCNC(=O)c1c(C)[nH]c(/C=C2\C(=O)Nc3ccc(F)cc32)c1C [sunitinib] | – | – | 50 | 33 | 17 | 67
